Source: US20230136878A1, “CARDIOMYOCYTE PURIFICATION METHOD” (ORIZURU THERAPEUTICS, INC., priority 2020, published 2023)

Columns and labels:
[1] = test system: sarcomeric α-actinin-positive cells (cardiomyocytes) in cell population induced to differentiate from human iPS cells; assay: Cardiac muscle marker-positive cell rate (cardiomyocyte rate) measurement by flow cytometry after compound treatment of embryoid bodies; conditions: for cardiomyocyte rate (Actinin-positive cell rate) as compared with no treatment with compound: Experimental Example 1, FIG. 4, compounds added day 8 and 10, measured day 13, AMG337 2 μM, ASP5878 0.02/0.05/0.12 μM, BGJ398 0.2/1 μM; for cardiomyocyte rate (sarcomeric α-actinin-positive cell rate) as compared with no treatment: Experimental Example 4, FIG. 8, Foretinib 0.5 μM added day 8, 10, 13
Protocol: VEGF was not added after Day 8.
(§1) On day 8 of differentiation induction, the embryoid bodies were collected in one centrifugal tube, allowed to stand at room temperature for several minutes to cause sedimentation of the embryoid bodies. The supernatant was removed with an aspirator, and a medium was added to replace the medium. The embryoid body suspension was transferred to a 6-well plate, and a 1/100 amount of an evaluation compound (compounds and concentrations of Experiment Nos. 2 to 8 shown in Table 1 below) was added at a concentration of 100 times the final concentration to each well. The plate was stirred to perform cell culture.
(§2) On day 10 of differentiation induction, the 6-well plate was stood for several minutes while tilting to allow embryoid bodies to form sediments. The supernatant was removed with an aspirator, and a medium was added to replace the medium in each well. […] On day 13 of differentiation induction, the 6-well plate was tilted to allow embryoid bodies to form sediments, and the embryoid bodies were transferred to a 1.5 mL tube with a pipette provided with a chip for wide-diameter 1 mL pipette. Dissociation into single cells was performed according to the staining of non-cardiomyocytes by cell surface marker, and a single cell suspension was used for the cardiomyocyte marker-positive cell rate measurement, and non-cardiomyocyte marker-positive cell rate measurement.
The above-mentioned single cell suspension was dispensed to a 1.5 mL tube, centrifuged at 400 g for 3 min, and the supernatant was removed. Cell pellets were resuspended in Cytofix/Cytoperm Fixation/Permeabilization Solution (BD), and fixed by allowing to stand at room temperature for 15 min. To each tube was added 1×Perm/Wash Buffer (1 mL), and the mixture was centrifuged at 1500 g for 3 min, and the supernatant was removed to wash the cells. After tapping the cell pellets, 1×Perm/Wash Buffer (1 mL) was added, and a similar operation was performed to wash the cells. After tapping the cell pellets, the cell pellets were stained with fluorescence dye Alexa647 using an anti-sarcomeric α-actinin antibody in 1×Perm/Wash Buffer containing 1% BSA, and DNA staining was further performed using DAPI (4′,6-Diamidino-2-phenylindole Dihydrochloride). The Sarcomeric α-actinin-positive cell rate was analyzed by measuring the fluorescence signal amount of Alexa647 in the cell population excluding dead cells (cells with DNA amount of Sub-G1) by using a flow cytometer.

[2] = test system: cells positive to any of CD326, CD31, CD49a (non-cardiomyocytes: END, EC, SMC) in cell population induced to differentiate from human iPS cells; assay: Non-cardiomyocyte marker-positive cell rate (non-cardiomyocyte rate) measurement by flow cytometry after compound treatment of embryoid bodies
Protocol: After tapping the cell pellets, PBS containing 1% BSA was added by 1 mL, and the mixture was centrifuged at 300×g for 3 min. The supernatant was removed. The cells were stained with APCFire750-labeled anti-CD326 antibody, PE-labeled anti-CD49a antibody, BV605-labeled anti-CD31 antibody, and DAPI in PBS containing 1% BSA. DAPI-positive dead cells were removed, and the separation of cell population and the ratio of each cell population were measured by measuring the signal amount of each fluorescence dye in nuclear cells.
as §1, §2
Using an unfrozen single cell suspension, the staining, measurement, and analysis were performed according to the staining of non-cardiomyocytes by cell surface marker.

[3] = test system: cell population induced to differentiate into cardiomyocytes from human iPS cells; assay: Recovered cell count measurement (cell counter NC-200) after compound treatment of embryoid bodies; type: cell-based
Protocol: The above-mentioned single cell suspension was 5-fold diluted by adding to IMDM medium prepared in a 1.5 mL tube, and mixed by inversion, and the cell count was measured with a cell counter NC-200 (Chemometec).

[4] = Experimental Example 5, FIG. 10, n=4, iPS line from PBMC LP_140, Crenolanib 1 μM, compound B 2 μM added day 8, 10, 13, ASP5878 0.02 μM added day 8 and 10, measured day 16
[5] = Experimental Example 3, FIG. 7, iPS line from PBMC LP_140, added day 8, 10, 13, measured day 17, compound A 0.5 μM, Foretinib 2 μM, ZM323881 2 μM, Crenolanib 1 μM, Crizotinib 2 μM
[6] = iPS line from PBMC LP_167, compound A 0.5 μM
[7] = iPS line from PBMC LP_140, compound A 0.5 μM, measured day 17
[8] = Experimental Example 7, FIG. 15, clinical iPS cell line produced by CiRA, added day 8, 10, 13, measured day 17, compound A 0.5 μM, Foretinib 2/0.5 μM, ZM323881 2 μM, CP-673451 1/0.3 μM, Crizotinib 2/0.5 μM
[9] = Experimental Example 1, FIG. 5, iPS line from PBMC LP_167, compounds added day 8 and 10, measured day 13, compound A 0.5 μM, AMG337 2 μM, ASP5878 0.02/0.05/0.12 μM, BGJ398 0.2/1 μM
[10] = Experimental Example 7, FIG. 16, clinical iPS cell line produced by CiRA, added day 8, 10, 13, measured day 17, compound A 0.5 μM, Foretinib 2/0.5 μM, ZM323881 2 μM, CP-673451 1/0.3 μM, Crizotinib 2/0.5 μM
[11] = Experimental Example 9, FIG. 19, clinical iPS cell line produced by CiRA, Foretinib 0.5 μM, Crizotinib 2 μM added day 8, 10, 13, measured day 17
[12] = Experimental Example 9, FIG. 20, n=4, clinical iPS cell line produced by CiRA, Foretinib 0.5 μM, Crizotinib 2 μM added day 8, 10, 13, measured day 17

| Structure (SMILES) | non-cardiomyocyte rate (rate of cells positive to any of CD326, CD31, CD49a) as compared with no treatment with compound [2, 5] | cardiomyocyte rate (Actinin-positive cell rate) as compared with no treatment with compound [1, 6] | cardiomyocyte rate (sarcomeric α-actinin-positive cell rate) as compared with no treatment with compound [1, 8] | non-cardiomyocyte rate (rate of cells positive to any of CD326, CD31, CD49a) as compared with no treatment with compound [2, 9] | non-cardiomyocyte rate as compared with no treatment with compound [2, 10] | also measured |
| --- | --- | --- | --- | --- | --- | --- |
| CC1(COc2ccc3c(c2)ncn3-c2ccc3cccc(N4CCC(N)CC4)c3n2)COC1 [Crenolanib] | decreased | – | – | – | – | cardiomyocyte rate (sarcomeric α-actinin-positive cell rate) as compared with no treatment with compound [1, 4]: increased; cardiomyocyte rate (sarcomeric α-actinin-positive cell rate) ([1]; Experimental Example 8, FIG. 17, clinical iPS cell line produced by CiRA, Crenolanib 0.2 or 1 μM, start of addition day 8, 10 or 13 (Table 8), measured day 23): increased; non-cardiomyocyte rate ([2]; Experimental Example 8, FIG. 18, clinical iPS cell line produced by CiRA, Crenolanib 0.2 or 1 μM, start of addition day 8, 10 or 13 (Table 8), measured day 23): decreased |
| Cc1cc(C(=O)Nc2cc(Oc3ccc4nc(NC(=O)C5CC5)cn4n3)ccc2C)n(C)n1 [compound A, N-[5-({2-[(cyclopropanecarbonyl)amino]imidazo[1,2-b]pyridazin-6-yl}oxy)-2-methylphenyl]-1,3-dimethyl-1H-pyrazole-5-carboxamide] | decreased | increased | increased | decreased | decreased | number of cells recovered as compared with no treatment (in words) ([3]; Experimental Example 4, FIG. 9, iPS line from PBMC LP_140, compound A 0.5 μM added day 8, 10, 13, day 17): almost the same number of cells was recovered; number of recovered cells depending on the presence or absence of the compound treatment ([3]; Experimental Example 6, FIG. 14, n=4, clinical iPS cell line produced by CiRA, compound A 0.2 μM added day 14, 17, 21): did not change much; cardiomyocyte rate (sarcomeric α-actinin-positive cell rate) as compared with no treatment [1, 7]: increased; cardiomyocyte rate as compared with no treatment with compound ([1]; Experimental Example 6, FIG. 12, n=4, clinical iPS cell line produced by CiRA, compound A 0.2 μM added day 14, 17, 21): increased; non-cardiomyocyte rate as compared with no treatment with compound ([2]; Experimental Example 6, FIG. 13, n=4, clinical iPS cell line produced by CiRA, compound A 0.2 μM added day 14, 17, 21): decreased |
| COCCOc1ccc2c(c1)ncn2-c1ccc2cccc(N3CCC(N)CC3)c2n1 [CP-673451] | – | – | increased | – | decreased | – |
| Cc1cc(F)c(Nc2ncnc3cc(OCc4ccccc4)ccc23)cc1O [ZM323881] | decreased | – | increased | – | decreased | – |
| CCN1CCN(c2ccc(Nc3cc(N(C)C(=O)Nc4c(Cl)c(OC)cc(OC)c4Cl)ncn3)cc2)CC1 [BGJ398] | – | increased | – | decreased | – | – |
| COCCOc1cnc2ccn([C@H](C)c3nnc4c(F)cc(-c5cnn(C)c5)cn34)c(=O)c2c1 [AMG337] | – | increased | – | decreased | – | – |
| COc1cc2nccc(Oc3ccc(NC(=O)C4(C(=O)Nc5ccc(F)cc5)CC4)cc3F)c2cc1OC [compound B, N-{4-[(6,7-dimethoxyquinolin-4-yl)oxy]-3-fluorophenyl}-N′-(4-fluorophenyl)cyclopropane-1,1-dicarboxamide] | – | – | – | – | – | cardiomyocyte rate (sarcomeric α-actinin-positive cell rate) as compared with no treatment with compound [1, 4]: increased |
| COc1cc2c(Oc3ccc(NC(=O)C4(C(=O)Nc5ccc(F)cc5)CC4)cc3F)ccnc2cc1OCCCN1CCOCC1 [Foretinib] | decreased | – | increased | – | decreased | number of cells recovered as compared with no treatment ([3]; Experimental Example 4, FIG. 9, iPS line from PBMC LP_140, Foretinib 0.5 μM added day 8, 10, 13, day 17): about 70%; number of cells recovered as compared with no treatment with compound (in words) ([3]; Experimental Example 9, FIG. 21, n=4, clinical iPS cell line produced by CiRA, Foretinib 0.5 μM added day 8, 10, 13, day 17): almost the same number of cells was recovered; cardiomyocyte rate (sarcomeric α-actinin-positive cell rate) as compared with no treatment with compound ([1]; Experimental Example 2, FIG. 6, n=4, iPS line from PBMC LP_167, Foretinib 2 μM added day 8, 10, 13, ASP5878 0.02 μM added day 8 and 10, measured day 16): increased; cardiomyocyte rate (sarcomeric α-actinin-positive cell rate) as compared with no treatment [1, 7]: increased; cardiomyocyte rate (sarcomeric α-actinin-positive cell rate) as compared with no treatment with compound [1, 11]: increased; non-cardiomyocyte rate as compared with no treatment with compound [2, 12]: decreased |
| C[C@@H](Oc1cc(-c2cnn(C3CCNCC3)c2)cnc1N)c1c(Cl)ccc(F)c1Cl [Crizotinib] | decreased | – | increased | – | decreased | number of cells recovered as compared with no treatment with compound ([3]; Experimental Example 9, FIG. 21, n=4, clinical iPS cell line produced by CiRA, Crizotinib 2 μM added day 8, 10, 13, day 17): About 80%; cardiomyocyte rate (sarcomeric α-actinin-positive cell rate) as compared with no treatment with compound [1, 11]: increased; non-cardiomyocyte rate as compared with no treatment with compound [2, 12]: decreased |
